The values that follow come from publication PMC12722308, “A phase 1 study of orally administered 5-fluoro-2’-deoxycytidine with tetrahydrouridine in patients with refractory solid tumors” (Cancer Chemotherapy and Pharmacology, 2025).

Data set [1] can be described thus: Phase 1 dose escalation: adverse events (CTCAE v4.0), DLT, MTD/RP2D. The data set is classed as in vivo, human. Conditions: orally once daily with 3000 mg THU on days 1–6 and 8–13 of each 21-day cycle (dose level 8).
Procedure: FdCyd and THU were supplied by the NCI Division of Cancer Treatment and Diagnosis. Patients were administered both drugs orally in 21-day cycles, and dose escalation proceeded according to a traditional 3 + 3 design as per the dose escalation schema shown in Supplementary Table S1. […] Patients maintained a study diary to note any side effects or concurrent medications. The NCI Common Terminology Criteria for Adverse Events version 4.0 was used to grade adverse events. Tumor response was assessed by radiography at baseline and every 2 cycles thereafter and evaluated per RECIST version 1.1 [11]. Following determination of the maximum tolerated dose (MTD)/recommended phase 2 dose (RP2D), an additional 13 patients were enrolled on a RP2D expansion cohort for assessments of pharmacodynamic biomarkers in baseline and on-treatment tumor biopsies.
DLTs were defined as toxicities that were at least possibly related to FdCyd or THU within the first cycle of treatment and met one of the following criteria: grade ≥ 3 non-hematological toxicity (including grade 3 nausea, vomiting, or diarrhea only if refractory to standard supportive care; grade 3 electrolyte toxicities only if unable to be corrected to ≤ grade 1 within 24 h; and tumor pain only if refractory to analgesics); grade 4 thrombocytopenia; or grade 4 neutropenia lasting ≥ 5 days or febrile neutropenia. […]
Data set [2] is described as follows: Urinary excretion by LC-MS/MS. The data set is classed as in vivo, human. The protocol: Blood specimens for PK analysis were collected on Cycle 1 Day 1 (C1D1) prior to THU administration and then at 15, 30, and 45 min and 1, 2, 3, 4, 5, and 6 h after THU administration, as well as on C1D2 and C1D3 prior to and 2 h after THU administration. Urine specimens for PK analysis were collected on C1D1 prior to treatment and then at every void from 0 to 24 h after THU administration. All specimens for PK analysis were processed and analyzed by LC-MS/MS as described previously, and Phoenix WinNonlin software was used for data analysis.

Data set [3] relates to p16-expressing vimentin-positive (V+) CTCs. The experiment in a line: CellSearch analysis of CTC p16 expression, V+ CTCs. Conditions: 2 of the 22 evaluable patients; oral FdCyd + THU. Format: in vivo, human. The protocol: Each blood specimen for CTC analysis (7.5 mL) was collected into a 10-mL CellSave preservative tube (Menarini Silicon Biosystems). Specimens were collected pre-treatment and then 6 h after THU administration on C1D1; prior to THU administration on […] and either C1D8 or […] (at the end of the first round of drug administration); on day 1 of cycle 2 and all subsequent cycles; and optionally at time of progression. Blood sample collection for CTC analysis was performed relative to the morning dose of THU for patients on the BID dose levels (DL10-11). CTC samples were processed and analyzed for p16, cytokeratin, and vimentin as described previously. Serial baseline blood specimens (C1D1 pre, C1D1 post, and […]) were obtained in light of baseline variability in CTC counts and p16 expression, and patients were considered assessable for cytokeratin-positive (CK^+) CTC p16 response if at least one of these baseline specimens (i.e., C1D1 pre, C1D1 post, and/or […]) and at least one post-treatment specimen (collected C2D1 or later) each contained ≥ 6 CTCs, as described. For patients with multiple baseline specimens, the specimen with the highest frequency of p16-positive CTCs was considered “baseline,” as described.

The subject of the next data set is CDKN2A. The experiment in a line: Tumor CDKN2A promoter methylation from genome-wide methylation sequencing. Format: in vivo, human. Conditions: of 6 expansion cohort patients with both CDKN2A and p16 IHC data. How it is done:
Tumor biopsy cores collected at baseline and C1W3 underwent nucleic acid extraction using the Qiagen AllPrep FFPE Nucleic acid Extraction kit and QiaCube automated platform. Extractions were performed on 1–2 biopsy cores per patient per time point; for specimens with low tumor content, tumor microdissection was performed prior to extraction. Genome-wide DNA methylation sequencing on the isolated DNA was performed by Zymo Research using Methyl-MiniSeq Genome-Wide Bisulfite Sequencing methodology. Sequence reads from bisulfite-treated Classic RRBS libraries were identified using standard Illumina base calling software. Raw FASTQ files were trimmed of adapter, filled-in nucleotides, and low-quality base calls using TrimGalore 0.6.4. […] Methylated and unmethylated read totals for each CpG site were called using Bismark Methylation Extractor. The methylation level of each sampled cytosine was estimated as the number of reads reporting a C, divided by the total number of reads reporting a C or T.
All statistical analyses were performed in R. Differentially methylated CpG sites (DMCs)—both hypo- and hyper-methylated—were identified with the R package DSS [14] using the two-sided Wald test for beta-binomial distributions with smoothing step as recommended. […] Regions with many significant DMCs were detected as differentially methylated regions (DMRs) using DSS function callDMR. […]

Data set [4] concerns p16-expressing vimentin-positive (V+) CTCs. Details: method as in PMID 32314030. Conditions: intravenously administered FdCyd; 6 of 12; cited from earlier work.
The conditions of data set [5]: cited from earlier work.

On to `Nc1nc(=O)n([C@H]2C[C@H](O)[C@@H](CO)O2)cc1F` [FdCyd, 5-fluoro-2’-deoxycytidine], for which the “Maximum tolerated dose / RP2D, FdCyd dose” value in data set [1] is on record as 160 mg. Besides, the “FdCyd urinary excretion over 0-24 hours of day 1” value is given as 0.083 (2.2) % dose in data set [2] (All FdCyd doses + THU 3000 mg, N=6, geom. mean (geom. SD)); 0.11 (2.6) % dose in data set [2] (All FdCyd doses + THU 6000 mg, N=3, geom. mean (geom. SD)); 0.083 (2.2) % dose in data set [2] (DL5-9: FdCyd 160 mg + THU 3000 mg, N=6, geom. mean (geom. SD)); 0.15 (3.2) % dose in data set [2] (DL10: FdCyd 60 mg + THU 6000 mg, N=2, geom. mean (geom. SD)); 0.058 (-) % dose in data set [2] (DL11: FdCyd 80 mg + THU 6000 mg, N=1). In addition, the “Patients with increases in the proportion of p16-expressing V+ CTCs” value in data set [3] came out at 9%. Also, the “Patients with treatment-associated decreases in tumor CDKN2A methylation” value with CDKN2A was “Five”. Moreover, in data set [4], the “Patients with increases in p16-expressing V+ CTCs” value was 50%. In addition, in data set [5], the “FdCyd bioavailability, previously established” value is 10%. The “FdCyd clearance, previous reports” value in data set [5] (intravenously administered FdCyd with THU, ref previous reports) is reported as 142 mL/min/m^2.
